Data on four compounds can be found in patent US8722663B2, “Di-substituted pyridine derivatives as anticancers” (Otsuka Pharmaceutical Co., Ltd., priority 2010, dated 2014).

In series [1] the test system is Human prostate cancer cells (LNCaP-Bic). Put plainly: Antitumor effect on LNCaP-Bic tumors transplanted in nude mice, tumor weight. The note with it: Mus musculus, po, 336 h, 10 mg/kg/day orally, once daily, 14 consecutive days, read-out: T/C(%) (10 mg/kg/day), tumor weight treated/control. In kind it is in vivo. As for the experimental part: (§1) Human prostate cancer cells (LNCaP-Bic) were transplanted in nude mice (6 males/group) and the inhibitory effect of the invention on their growth was examined. In the study, the tumor cell suspension with matrigel was inoculated at 0.12 mL/body (2.4×10^6 cells/body) into the subcutaneous space of the right axillary region to prepare tumor bearing mice. When the tumor diameter became 5 mm or more, the animals were allocated to groups based on the tumor volume. The test compound was administered orally as a suspension in 5% gum arabic, once daily, for 14 consecutive days. The control group received 5% gum arabic. Tumor volumes were measured on the following day of the last administration. Tumors were removed and the wet weight of the tumor was measured using an electronic balance. The ratio of the tumor weight in the treated group to that in the control group (T/C %) was calculated as the index for the effect. T/C %=(Mean tumor weight in the treatment group/Mean tumor weight in the control group)×100.

The subject of series [2] is bicalutamide resistant human prostate cancer cell line established from LNCaP.FGC (LNCaP-Bic). The series can be described thus: Growth inhibition of LNCaP-Bic cells, WST-8 assay. In kind it is cell-based. The note with it: 120 h, 5 days with test compound. Put shortly: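 Cells in RPMI 1640 with 10% FBS preincubated 24 h at 37 °C, 5% CO2, then exposed to compound for 5 days. WST-8 read-out, OD 450 minus 630 nm after cell-free blank subtraction; IC50 (nM) derived against untreated control growth.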
In general terms: Formazan colour is commonly taken as a measure of viable cells.

Series [3] has as its system human hepatic cancer cell line (HuH-7). The series can be described thus: Growth inhibition of HuH-7 cells, sulforhodamine B method. In kind it is cell-based. The note with it: Homo sapiens, 120 h, 5 days with test compound. Background: Sulforhodamine B stains cellular protein and so reports cell mass.
Series [4] deals with human prostate (adenocarcinoma) cell line (PC-3). The series can be described thus: Growth inhibition of PC-3 cells, WST-8 assay. In kind it is cell-based. The note with it: 120 h, 5 days with test compound. In short, it runs like this:
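Cells seeded in RPMI 1640 with 10% FBS, grown 24 h at 37 °C, 5% CO2, then exposed to compound for 5 days. WST-8 read-out, OD 450 nm minus 630 nm reference, cell-free blank subtracted. IC50 (nM) from growth relative to compound-free control.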

Another series has as its system PSA. Put plainly: Plasma levels of PSA in LNCaP-Bic tumor bearing nude mice, ELISA. In kind it is in vivo. The conditions noted are these: Mus musculus, po, 336 h; 10 mg/kg/day orally, once daily, 14 consecutive days; plasma PSA by ELISA; read-out: T/C(%) (10 mg/kg/day), plasma levels of PSA treated/control. As for the experimental part:
as §1
The heparinized blood was collected from the postcava under diethylether anesthesia. The plasma levels of PSA were measured using ELISA. The ratio of the plasma levels of PSA in the treated group to that in the control group (T/C %) was calculated as the index for the effect. T/C %=(Mean plasma levels of PSA in the treatment group/Mean plasma levels of PSA in the control group)×100.
(In general: In an ELISA, binding on a coated surface is turned into a signal by an enzyme label.)

Series [5] deals with human breast cancer cell line (MDA-MB-468). The series can be described thus: Growth inhibition of MDA-MB-468 cells, sulforhodamine B method. In kind it is cell-based. The note with it: 120 h, 5 days with test compound. In short, it runs like this:
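MDA-MB-468 cells in DMEM/10% FBS were incubated 24 h at 37° C., then exposed to compound for 5 days. After TCA fixation and sulforhodamine B staining, OD 492 nm minus 690 nm was read with cell-free background subtracted. IC50 was set against untreated control.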

Series [6] relates to human prostate (carcinoma) cell line (DU 145). The series can be described thus: Growth inhibition of DU 145 cells, WST-8 assay. The note with it: 120 h, 5 days with test compound. In kind it is cell-based. In short, it runs like this: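 DU 145 cells in RPMI 1640 with 10% FBS were pre-incubated 24 h at 37° C, 5% CO2, then exposed to compound for 5 days. Growth was read by WST-8 reduction (OD 450 minus 630 nm, cell-free blank subtracted). IC50 was taken relative to untreated control.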

For series [7], the system named is human prostate (carcinoma) cell line (LNCaP.FGC). Put plainly: Growth inhibition of LNCaP.FGC cells, WST-8 assay. The note with it: 120 h, 5 days with test compound. In kind it is cell-based. In short, it runs like this: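 Bicalutamide-resistant LNCaP-Bic cells (and parental LNCaP.FGC) in RPMI 1640 + 10% FBS were preincubated 24 h at 37 °C, 5% CO2, then exposed to compound for 5 days. Growth read by WST-8, OD 450 nm minus 630 nm, cell-free blank subtracted; IC50 (nM) taken relative to untreated control.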

Series [8] has as its system human prostate (adenocarcinoma) cell line (VcaP). The series can be described thus: Growth inhibition of VcaP cells, WST-8 assay. In kind it is cell-based. The conditions noted are these: 120 h, 5 days with test compound. In short, it runs like this: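 Cells in RPMI 1640 with 10% FBS were preincubated 24 h at 37° C., 5% CO2, then exposed to compound for 5 days. Growth read by WST-8 at 450 nm minus 630 nm, cell-free background subtracted. IC50 derived relative to untreated control.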

By IC50 is commonly meant the concentration that inhibits the measured activity by half. A higher IC50 goes with lower potency. As usually defined, the melting point is the temperature, or range, at which the solid turns liquid. In turn, `Cc1cc(/C=C/C(=O)N2CCN(Cc3ccc(CCOc4ccc(F)cc4)cc3)CC2)cc(Cl)c1Oc1ccc(OCc2ccc(F)cc2)cn1.Cl` [Example 435, (E)-3-[3-Chloro-4-({5-[(4-fluorobenzyl)oxy]pyridin-2-yl}oxy)-5-methylphenyl]-1-(4-{4-[2-(4-fluorophenoxy)ethyl]benzyl}piperazin-1-yl)prop-2-en-1-one hydrochloride] registered a melting point of 214.3 to 216.2 °C. Further, the response vs control in vivo at 10 mg/kg in series [1] is less than 50%. Besides, the IC50 in [2] is less than 10 nM. For the same compound, the IC50 in series [3] is less than 10 nM. The half-inhibitory concentration (IC50) in series [4] is less than 10 nM. Besides, the response vs control in vivo at 10 mg/kg in the series on PSA was less than 50%. Besides, the IC50 in series [5] is less than 10 nM. In [6], this compound came in with an IC50 of less than 10 nM. Moreover, the IC50 in [7] is less than 10 nM. Besides, the IC50 in series [8] was less than 10 nM.

Compound `Cc1ccc(OCCc2ccc(CN3CCN(C(=O)/C=C/c4cc(C)c(Oc5ccc(OCc6ccc(Cl)cc6)cn5)c(Cl)c4)CC3)cc2)cc1.Cl` [Example 777, (E)-3-[3-chloro-4-({5-[(4-chlorobenzyl)oxy]pyridin-2-yl}oxy)-5-methylphenyl]-1-(4-{4-[2-(4-methylphenoxy)ethyl]benzyl}piperazin-1-yl)prop-2-en-1-one hydrochloride] yielded a melting point of 220.1 to 220.3 °C. Further, the response vs control in vivo at 10 mg/kg in series [1] was less than 50%. The compound also gave an IC50 in series [2] of less than 10 nM. In series [3], this compound showed an IC50 of less than 10 nM. In series [4], the 50% inhibitory concentration (IC50) is less than 10 nM. Besides, the response vs control in vivo at 10 mg/kg in the series on PSA was less than 50%. The compound further showed an IC50 in series [5] of less than 10 nM. Moreover, the IC50 in series [6] is less than 10 nM. This compound also returned an IC50 in series [7] of less than 10 nM. Also, the IC50 in series [8] is less than 10 nM.

The compound `Cc1ccc(COc2ccc(Oc3c(C)cc(/C=C/C(=O)N4CCN(Cc5ccc(CCOc6ccc(F)cc6)cc5)CC4)cc3Cl)nc2)cc1.Cl` [Example 430, (E)-3-[3-Chloro-5-methyl-4-({5-[(4-methylbenzyl)oxy]pyridin-2-yl}oxy)phenyl]-1-(4-{4-[2-(4-fluorophenoxy)ethyl]benzyl}piperazin-1-yl)prop-2-en-1-one hydrochloride] yielded a melting point of 227.1 to 227.2 °C. In series [1], the response vs control in vivo at 10 mg/kg is less than 50%. This compound also showed an IC50 in [2] of less than 10 nM. The IC50 in series [3] was less than 10 nM. In series [4], this compound had an IC50 of less than 10 nM. Further, in the series on PSA, the response vs control in vivo at 10 mg/kg was less than 50%. The compound also returned an IC50 in [5] of less than 10 nM. In addition, the IC50 in series [6] is less than 10 nM. The compound also came in with an IC50 in series [7] of less than 10 nM. In series [8], the IC50 is less than 10 nM.

As for `Cc1ccc(COc2ccc(Oc3c(C)cc(/C=C/C(=O)N4CCN(Cc5ccc(CCOc6ccc(C)cc6)cc5)CC4)cc3Cl)nc2)cc1.Cl` [Example 432, (E)-3-[3-Chloro-5-methyl-4-({5-[(4-methylbenzyl)oxy]pyridin-2-yl}oxy)phenyl]-1-(4-{4-[2-(4-methylphenoxy)ethyl]benzyl}piperazin-1-yl)prop-2-en-1-one hydrochloride], the melting point fell in the range of 232.1 to 232.7 °C. In [1], the response vs control in vivo at 10 mg/kg was less than 50%. This compound registered an IC50 in series [2] of less than 10 nM. Moreover, the IC50 in series [3] is less than 10 nM. In [4], the IC50 was less than 10 nM. Moreover, the response vs control in vivo at 10 mg/kg in the series on PSA was less than 50%. In series [5], this compound registered an IC50 of less than 10 nM. The same compound displayed an IC50 in series [6] of less than 10 nM. Further, the IC50 in series [7] is less than 10 nM. Besides, the IC50 in series [8] is less than 10 nM.
